Experimental data: patent US20260365670A1, “EGFR INHIBITORS AND USES THEREOF” (DIZAL (JIANGSU) PHARMACEUTICAL CO., LTD., priority 2022, published 2026)
pIC50: −log10 of the molar value. Where two headings read alike, the source gives them in different places.

Key:
EGFR (d746-750 C797S) = target: T1, EGFR (d746-750 C797S) (Homo sapiens, UniProt P00533, C797S/DEL746-750); assay: Inhibition of EGFR (d746-750 C797S) biochemical enzymatic activity (HTRF); conditions: EGFR Del19-C797S, 1 mM ATP, 1 h, room temperature, read-out: IC50 (nM) @Del19-C797S
T1 construct: purchased signalchem
T1 sequence (P00533 with tags, fused parts or gaps DEL746-750/C797S limits assumed): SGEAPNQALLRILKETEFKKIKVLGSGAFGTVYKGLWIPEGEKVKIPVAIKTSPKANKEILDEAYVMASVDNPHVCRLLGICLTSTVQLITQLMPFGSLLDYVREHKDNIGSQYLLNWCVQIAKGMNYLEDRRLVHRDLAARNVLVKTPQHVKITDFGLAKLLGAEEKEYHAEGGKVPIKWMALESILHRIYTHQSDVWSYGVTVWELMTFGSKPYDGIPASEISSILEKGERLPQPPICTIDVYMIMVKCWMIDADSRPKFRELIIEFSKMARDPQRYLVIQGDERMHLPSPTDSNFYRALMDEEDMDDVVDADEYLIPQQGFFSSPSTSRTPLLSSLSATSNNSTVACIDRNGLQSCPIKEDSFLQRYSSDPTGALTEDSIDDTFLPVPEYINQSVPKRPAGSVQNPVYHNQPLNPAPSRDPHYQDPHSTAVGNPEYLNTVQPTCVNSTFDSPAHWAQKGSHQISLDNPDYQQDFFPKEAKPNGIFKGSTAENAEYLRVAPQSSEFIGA
How it was run: (§1)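 In a buffer with 5 mM MgCl2, 1 mM MnCl2, 1 mM DTT and 0.01% CHAPS, enzyme turnover of 1 μM biotinylated TK substrate at 1 mM ATP is followed by HTRF after 1 h at room temperature. IC50 is obtained by a four-parameter fit.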

A-431 = assay: Cell proliferation assay, A-431 cells (GI50, Table 6); type: cell-based; conditions: Homo sapiens, A-431, A-431 cells
EGFR[T790M/C797S/L858R] = target: T2, EGFR[T790M/C797S/L858R] (Homo sapiens, UniProt P00533, C797S/L858R/T790M); assay: Inhibition of EGFR[T790M/C797S/L858R] biochemical enzymatic activity (HTRF); conditions: EGFR T790M-C797S-L858R, 1 mM ATP, 1 h, room temperature, read-out: IC50 (nM) @T790M- C797S - L858R
T2 construct: purchased Carna Bio
How it was run: as §1

EGFR L858R/T790M = target: T3, EGFR L858R/T790M (Homo sapiens, UniProt P00533, L858R/T790M); assay: Inhibition of EGFR L858R/T790M biochemical enzymatic activity (HTRF); conditions: EGFR L858R-T790M, 1 mM ATP, 1 h, room temperature, read-out: IC50 (nM) @L858R-T790M
T3 construct: purchased Carna Bio
T3 sequence (P00533 25-1210 T790M/L858R): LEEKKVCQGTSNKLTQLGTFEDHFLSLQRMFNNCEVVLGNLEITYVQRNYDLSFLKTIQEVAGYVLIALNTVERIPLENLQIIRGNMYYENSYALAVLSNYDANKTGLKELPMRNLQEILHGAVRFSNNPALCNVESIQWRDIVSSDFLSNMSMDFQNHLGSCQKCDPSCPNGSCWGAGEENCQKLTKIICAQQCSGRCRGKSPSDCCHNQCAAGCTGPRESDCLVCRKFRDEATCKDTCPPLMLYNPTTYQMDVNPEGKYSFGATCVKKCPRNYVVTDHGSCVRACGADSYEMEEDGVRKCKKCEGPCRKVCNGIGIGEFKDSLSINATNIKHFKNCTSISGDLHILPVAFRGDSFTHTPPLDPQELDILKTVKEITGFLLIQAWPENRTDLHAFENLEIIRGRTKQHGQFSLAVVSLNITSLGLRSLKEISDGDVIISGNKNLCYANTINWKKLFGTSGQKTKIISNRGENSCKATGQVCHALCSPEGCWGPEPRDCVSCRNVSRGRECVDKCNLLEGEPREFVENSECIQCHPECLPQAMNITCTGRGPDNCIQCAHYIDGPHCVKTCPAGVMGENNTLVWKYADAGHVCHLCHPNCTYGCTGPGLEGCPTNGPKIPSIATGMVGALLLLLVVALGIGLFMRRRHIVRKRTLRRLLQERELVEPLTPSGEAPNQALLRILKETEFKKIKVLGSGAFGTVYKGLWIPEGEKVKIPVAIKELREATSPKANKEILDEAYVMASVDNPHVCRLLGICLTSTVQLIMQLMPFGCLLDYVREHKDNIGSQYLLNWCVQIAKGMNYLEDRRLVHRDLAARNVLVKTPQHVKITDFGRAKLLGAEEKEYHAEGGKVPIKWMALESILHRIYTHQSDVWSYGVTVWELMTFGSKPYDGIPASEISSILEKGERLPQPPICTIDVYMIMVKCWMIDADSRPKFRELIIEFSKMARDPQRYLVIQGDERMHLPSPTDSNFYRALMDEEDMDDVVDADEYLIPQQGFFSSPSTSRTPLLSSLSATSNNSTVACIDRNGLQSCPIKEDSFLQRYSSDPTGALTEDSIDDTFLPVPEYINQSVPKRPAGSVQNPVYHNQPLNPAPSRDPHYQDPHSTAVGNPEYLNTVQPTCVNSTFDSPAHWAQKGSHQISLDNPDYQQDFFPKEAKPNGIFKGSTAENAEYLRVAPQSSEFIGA
How it was run: as §1

EGFR (C797S L858R) = target: T4, EGFR (C797S L858R) (Homo sapiens, UniProt P00533, C797S/L858R); assay: Inhibition of EGFR (C797S L858R) biochemical enzymatic activity (HTRF); conditions: EGFR L858-C797S, 1 mM ATP, 1 h, room temperature, read-out: IC50 (nM) @L858-C797S
T4 construct: purchased signalchem
How it was run: as §1

EGFR Exon19Del = target: T5, EGFR Exon19Del (Homo sapiens, UniProt P00533, DEL746-750); assay: Inhibition of EGFR Exon19Del biochemical enzymatic activity (HTRF); conditions: EGFR Del19, 1 mM ATP, 1 h, room temperature, read-out: IC50 @Del19
T5 construct: purchased Carna Bio
How it was run: as §1

EGFR L858R = target: T6, EGFR L858R (Homo sapiens, UniProt P00533, L858R); assay: Inhibition of EGFR L858R biochemical enzymatic activity (HTRF); conditions: 1 mM ATP, 1 h, room temperature, read-out: IC50 (nM) @L858R
T6 construct: purchased Carna Bio
T6 sequence (P00533 25-1210 L858R): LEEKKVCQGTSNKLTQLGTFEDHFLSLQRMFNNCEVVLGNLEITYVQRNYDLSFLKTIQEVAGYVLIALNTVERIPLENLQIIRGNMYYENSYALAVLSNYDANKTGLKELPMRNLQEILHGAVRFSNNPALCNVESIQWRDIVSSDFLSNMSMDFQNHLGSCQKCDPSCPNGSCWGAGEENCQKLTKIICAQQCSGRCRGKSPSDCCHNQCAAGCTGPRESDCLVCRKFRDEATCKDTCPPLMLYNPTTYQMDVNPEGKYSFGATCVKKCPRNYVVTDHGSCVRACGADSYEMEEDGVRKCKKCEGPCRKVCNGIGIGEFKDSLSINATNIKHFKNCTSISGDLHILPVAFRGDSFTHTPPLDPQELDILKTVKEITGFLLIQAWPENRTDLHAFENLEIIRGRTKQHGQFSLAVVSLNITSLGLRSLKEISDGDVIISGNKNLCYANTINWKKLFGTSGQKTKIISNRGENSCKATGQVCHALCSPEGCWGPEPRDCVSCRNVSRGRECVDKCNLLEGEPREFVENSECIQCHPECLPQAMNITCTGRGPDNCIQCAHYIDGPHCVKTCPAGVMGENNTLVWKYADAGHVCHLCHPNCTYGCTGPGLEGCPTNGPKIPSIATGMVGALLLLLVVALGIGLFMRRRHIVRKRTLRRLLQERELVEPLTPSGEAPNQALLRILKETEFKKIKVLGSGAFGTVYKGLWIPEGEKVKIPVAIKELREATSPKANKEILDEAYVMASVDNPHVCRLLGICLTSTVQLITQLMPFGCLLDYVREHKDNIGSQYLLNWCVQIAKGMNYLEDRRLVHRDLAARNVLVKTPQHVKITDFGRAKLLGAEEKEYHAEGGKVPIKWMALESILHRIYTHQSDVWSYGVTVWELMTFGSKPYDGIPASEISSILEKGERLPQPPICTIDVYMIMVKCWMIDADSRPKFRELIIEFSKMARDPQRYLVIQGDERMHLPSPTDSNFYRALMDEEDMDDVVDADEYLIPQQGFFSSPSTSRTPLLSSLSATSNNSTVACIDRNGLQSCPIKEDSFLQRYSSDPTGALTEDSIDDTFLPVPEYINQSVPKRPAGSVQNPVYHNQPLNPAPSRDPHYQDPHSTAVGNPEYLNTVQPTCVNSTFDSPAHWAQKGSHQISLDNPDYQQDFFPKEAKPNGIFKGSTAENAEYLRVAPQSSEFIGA
How it was run: as §1

EGFR Exon19Del/T790M = target: T7, EGFR Exon19Del/T790M (Homo sapiens, UniProt P00533, DEL746-750/T790M); assay: Inhibition of EGFR Exon19Del/T790M biochemical enzymatic activity (HTRF); conditions: EGFR Del19-T790M, 1 mM ATP, 1 h, room temperature, read-out: IC50 (nM) @Del19-T790M
T7 construct: purchased Carna Bio
How it was run: as §1

EGFR wild type = target: T8, EGFR wild type (Homo sapiens, UniProt P00533); assay: Inhibition of EGFR wild type biochemical enzymatic activity (HTRF); conditions: EGFR WT, 1 mM ATP, 1 h, room temperature, read-out: IC50 (nM) @WT
T8 construct: purchased Carna Bio
T8 sequence (P00533 25-1210): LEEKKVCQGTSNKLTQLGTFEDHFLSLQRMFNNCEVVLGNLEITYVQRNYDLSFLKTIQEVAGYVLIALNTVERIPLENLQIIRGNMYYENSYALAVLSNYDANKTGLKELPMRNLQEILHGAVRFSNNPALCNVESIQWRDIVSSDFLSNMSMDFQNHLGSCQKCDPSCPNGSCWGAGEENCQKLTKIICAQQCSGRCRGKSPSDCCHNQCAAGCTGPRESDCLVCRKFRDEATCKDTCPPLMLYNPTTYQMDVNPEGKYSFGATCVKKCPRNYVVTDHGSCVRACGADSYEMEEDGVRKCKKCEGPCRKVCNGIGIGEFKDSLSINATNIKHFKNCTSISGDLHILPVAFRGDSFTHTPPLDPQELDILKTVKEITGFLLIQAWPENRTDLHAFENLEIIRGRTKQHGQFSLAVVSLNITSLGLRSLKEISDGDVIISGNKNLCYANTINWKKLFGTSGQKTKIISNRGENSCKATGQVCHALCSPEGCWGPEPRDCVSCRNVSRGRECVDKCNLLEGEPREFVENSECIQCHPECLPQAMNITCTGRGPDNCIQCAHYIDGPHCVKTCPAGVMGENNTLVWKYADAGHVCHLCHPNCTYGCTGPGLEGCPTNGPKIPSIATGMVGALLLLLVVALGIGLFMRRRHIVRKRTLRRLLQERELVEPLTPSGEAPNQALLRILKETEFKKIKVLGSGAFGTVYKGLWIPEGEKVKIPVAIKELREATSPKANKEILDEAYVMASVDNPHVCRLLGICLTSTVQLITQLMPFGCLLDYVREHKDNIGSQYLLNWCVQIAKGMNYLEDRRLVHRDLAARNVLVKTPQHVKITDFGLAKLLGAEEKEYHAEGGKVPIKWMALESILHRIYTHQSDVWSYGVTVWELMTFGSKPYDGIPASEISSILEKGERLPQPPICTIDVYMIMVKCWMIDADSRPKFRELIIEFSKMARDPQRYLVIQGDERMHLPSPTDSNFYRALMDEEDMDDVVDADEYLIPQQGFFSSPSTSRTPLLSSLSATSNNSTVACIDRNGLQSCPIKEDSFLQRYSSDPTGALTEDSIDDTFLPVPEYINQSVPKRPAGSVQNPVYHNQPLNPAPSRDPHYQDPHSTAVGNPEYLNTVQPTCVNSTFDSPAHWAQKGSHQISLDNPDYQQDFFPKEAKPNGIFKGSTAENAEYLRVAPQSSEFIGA
How it was run: as §1

[1] = target: T9, EGFR[T790M/C797S/d746-750] (Homo sapiens, UniProt P00533, C797S/DEL746-750/T790M); assay: Inhibition of EGFR[T790M/C797S/d746-750] biochemical enzymatic activity (HTRF); conditions: EGFR T790M-C797S-Del19, 1 mM ATP, 1 h, room temperature, read-out: IC50 (nM) @T790M - C797S - Del19
T9 construct: purchased Carna Bio
T9 sequence (P00533 with tags, fused parts or gaps DEL746-750/T790M/C797S limits assumed): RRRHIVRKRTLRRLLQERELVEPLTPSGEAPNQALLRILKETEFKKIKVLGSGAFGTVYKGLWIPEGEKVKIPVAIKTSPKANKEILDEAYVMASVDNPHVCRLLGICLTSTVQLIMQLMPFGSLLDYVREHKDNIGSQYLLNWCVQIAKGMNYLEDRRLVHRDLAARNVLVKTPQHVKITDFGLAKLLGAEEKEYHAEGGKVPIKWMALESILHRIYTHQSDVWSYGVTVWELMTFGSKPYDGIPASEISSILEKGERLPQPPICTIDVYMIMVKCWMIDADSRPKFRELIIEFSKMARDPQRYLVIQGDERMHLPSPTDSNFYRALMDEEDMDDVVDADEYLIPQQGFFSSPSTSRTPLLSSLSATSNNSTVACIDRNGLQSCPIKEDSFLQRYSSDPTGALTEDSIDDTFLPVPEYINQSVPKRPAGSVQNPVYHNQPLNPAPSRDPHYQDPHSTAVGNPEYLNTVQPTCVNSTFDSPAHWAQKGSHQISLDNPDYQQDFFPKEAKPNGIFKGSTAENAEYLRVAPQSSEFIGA
How it was run: as §1

PC-9 = assay: Cell proliferation assay, PC-9 cells (CellTiter-Glo, 72 hours); type: cell-based; conditions: Homo sapiens, PC-9, 72 h, PC9 cells, read-out: GI50 PC9
How it was run: (§2)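 Luminescent viable-cell counts were taken on a day 0 plate at dosing and again at endpoint. Proliferation was calculated as (sample − G0)/(DMSO − G0). Seeding was 5000 Ba/F3 or 500 PC-9 cells per well in RPMI1640, followed by overnight attachment and serial compound dilutions. The GI50 was fitted.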

[2] = test system: Ba/F3 cells expressing EGFR mutations; assay: Cell proliferation assay, Ba/F3 cells expressing EGFR mutations (CellTiter-Glo, 72 hours); type: cell-based; conditions: Mus musculus, BaF3, 72 h
How it was run: as §2

[3] = BaF3 cells, EGFR DEL19 - C797S, read-out: GI50 DEL19 - C797S/BaF3
[4] = BaF3 cells, EGFR DEL19 - T790-C797S, read-out: GI50 DEL19 - T790-C797S/BaF3
[5] = BaF3 cells, EGFR L858R - C797S, read-out: GI50 L858R - C797S/BaF3
[6] = BaF3 cells, EGFR L858R - T790-C797S, read-out: GI50 L858R - T790-C797S/BaF3
[7] = BaF3 cells, EGFR L858R - T790M, read-out: GI50 L858R - T790M/BaF3
[8] = BaF3 cells, EGFR L858R, read-out: GI50 L858R/BaF3
[9] = EGFR DEL19 - T790M, read-out: GI50 DEL19 - T790M

SMILES	IC50 (EGFR (d746-750 C797S)) [nM]	GI50 (A-431) [nM]	IC50 (EGFR[T790M/C797S/L858R]) [nM]	IC50 (EGFR L858R/T790M) [nM]	IC50 (EGFR (C797S L858R)) [nM]	pIC50 (EGFR Exon19Del)	IC50 (EGFR L858R) [nM]	IC50 (EGFR Exon19Del/T790M) [nM]	IC50 (EGFR wild type) [nM]	IC50 [1] [nM]	GI50 (PC-9) [nM]	GI50 [2, 3] [nM]	GI50 [2, 4] [nM]	GI50 [2, 5] [nM]	GI50 [2, 6] [nM]	GI50 [2, 7] [nM]	GI50 [2, 8] [nM]	GI50 [2, 9] [nM]
CN(C)CCCN(C)c1ccc2nc3n(c2c1)C12CCC(CC1)CN(CCOc1c(cnn1C)-c1cc(cn(C)c1=O)C(=O)N3)C2 [Example A125]	25	3740	359	582	128	7.54	189	18	4060	15	35	7.9	43	34	21	64	7	30
CN1CC2CN(c3ccc4nc5n(c4c3)C34CCC(CC3)CN(CCOc3c(cnn3C)-c3cc(cn(C)c3=O)C(=O)N5)C4)CC2C1 (stereo not drawn) [Example A126]	9.9	4090	52	169	71	7.89	95	12	> 5000	8.9	34	7.3	36	29	18	50	5.5	26
CN1CCC2CN(c3ccc4nc5n(c4c3)C34CCC(CC3)CN(CCOc3c(cnn3C)-c3cc(cn(C)c3=O)C(=O)N5)C4)CC21 (stereo not drawn) [Example A127]	9.2	4680	39	211	69	7.82	118	10	4880	6.1	34	8.5	36	38	21	52	7.2	26
Cn1ncc2c1OCCN1CC3CCC(CC3)(C1)n1c(nc3ccc(N4CCN(C5CC5)CC4)cc31)NC(=O)c1cc-2c(=O)n(C)c1 [Example A128]	4.9	2650	33	307	49	7.96	202	8	> 5000	4.7	61	13	90	65	47	119	11	66
Cc1cc2cc(n1)-c1cnn(C)c1OCCN1CC3CCC(CC3)(C1)n1c(nc3ccccc31)NC2=O [Example B1, 15,21-Dimethyl-23-oxa-2,9,11,16,20,21,26-heptaazaheptacyclo[26.2.2.1^{1,26}.1^{13,17}.0^{2,10}.0^{3,8}.0^{18,22}]tetratriaconta-3,5,7,9,13,15,17(34),18(22),19-nonaen-12-one]	2200	4390	23	15	112	6.82	1480	6.5	> 5000	13	410	95	20	736	51	98	751	22
Cc1cc2cc(n1)-c1cnn(C)c1OCCN1CC3CCC(CC3)(C1)n1c(nc3ccc(N4CCOCC4)cc31)NC2=O [Example B2, 15,21-Dimethyl-5-(morpholin-4-yl)-23-oxa-2,9,11,16,20,21,26-heptaazaheptacyclo[26.2.2.1^{1,26}.1^{13,17}.0^{2,10}.0^{3,8}.0^{18,22}]tetratriaconta-3,5,7,9,13,15,17(34),18(22),19-nonaen-12-one]	560	3160	36	25	28	7.33	320	13	> 5000	20	102	18	4.7	153	10	14	125	5
Cc1cc2cc(n1)-c1cnn(C)c1OCCN1CC3CCC(CC3)(C1)n1c(nc3ccc(N4CCN(C)CC4)cc31)NC2=O [Example B3, 15,21-dimethyl-5-(4-methylpiperazin-1-yl)-23-oxa-2,9,11,16,20,21,26-heptaazaheptacyclo[26.2.2.1^{1,26}.1^{13,17}.0^{2,10}.0^{3,8}.0^{18,22}]tetratriaconta-3,5,7,9,13,15,17(34),18(22),19-nonaen-12-one]	36	2020	11	7.2	3.1	8.15	24	4.3	954	7.3	52	7.5	1.7	58	5.2	11	41	2.5
